In patent US8962621B2 (Shanghai Institute of Pharmaceutical Industry, priority 2010, dated 2015):

Legend:
male ICR mice = assay: Mice tail suspension test; format: in vivo
Procedure, shortened: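 Samples given intragastrically at 10 mL·kg^−1, saline for controls; mice tail-suspended 1 h later. Immobility time was scored over 4 min after a 2 min lead-in, and improvement % calculated as reduction in immobility relative to the saline group.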

DA reuptake = assay: Oxidation tremor test (oxotremorine-induced tremors); format: in vivo, mice
Text: Tests of the 5-hydroxytryptophan (DL-5-HTP) potentiation in mice, Yohimbine toxicity enhancement in mice and oxidation tremors can verify a compound's inhibition effect on 5-HT, NA and DA reuptake. Compound VI-2 is selected for the tests.
a) Principles • The pathogenesis of paralysis agitans is primarily related to the imbalance between DA function and Ach function. […] If the same function can be exerted in vivo, VI-2 will be able to partially antagonize the symptoms induced by an M receptor agonist.
b) Test Method • This test consists of 6 experimental groups: Model control group, VI-2-1 (300 mg/kg) group, VI-2-2 (200 mg/kg) group, VI-2-3 (120 mg/kg) group, VI-2-4 (60 mg/kg) group and VI-2-5 (30 mg/kg) group. For each VI-2 group, the compound at the corresponding dosage is administrated orally, or as in the case of the Model control group, N.S is given to the animals. One hour after the treatment, oxotremorine (0.5 mg/kg, 0.1 mL/10 g) is administrated by intraperitoneal injection to the mice in all groups. Responses of the mice are observed.

[1] = Acute toxicity experiment (single oral gavage); conditions: mouse, in vivo, po
5-HT Transporter (hSERT) = 5-HT Transporter (hSERT) (Homo sapiens, UniProt P31645); assay: Inhibition of [3H]-5-HT reuptake in HEK 293 cells stably expressing hSERT;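 also: compound preincubated 10 min at 30 °C, then 10 min uptake, filter-bound radioactivity counted by scintillation, inhibition relative to total (blank) minus non-specific (positive control) uptake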
Sequence of 5-HT Transporter (hSERT) (P31645 whole entry): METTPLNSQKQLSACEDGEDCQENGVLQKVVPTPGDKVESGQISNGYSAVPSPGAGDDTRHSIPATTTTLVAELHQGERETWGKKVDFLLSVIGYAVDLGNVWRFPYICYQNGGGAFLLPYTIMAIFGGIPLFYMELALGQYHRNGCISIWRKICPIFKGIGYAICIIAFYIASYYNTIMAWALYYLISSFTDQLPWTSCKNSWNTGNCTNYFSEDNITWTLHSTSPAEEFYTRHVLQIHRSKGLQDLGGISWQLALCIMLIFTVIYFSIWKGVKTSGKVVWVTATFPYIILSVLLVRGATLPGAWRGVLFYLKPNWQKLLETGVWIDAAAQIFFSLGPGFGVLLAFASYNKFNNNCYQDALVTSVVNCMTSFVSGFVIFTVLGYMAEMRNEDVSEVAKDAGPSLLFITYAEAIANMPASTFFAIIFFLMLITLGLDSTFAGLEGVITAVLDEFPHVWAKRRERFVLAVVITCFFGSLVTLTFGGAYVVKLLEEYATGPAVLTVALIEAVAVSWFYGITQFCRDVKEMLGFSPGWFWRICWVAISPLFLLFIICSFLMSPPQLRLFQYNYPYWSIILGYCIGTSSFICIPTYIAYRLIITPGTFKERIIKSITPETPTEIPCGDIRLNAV

SMILES: CN(C)CCC(c1ccc(Cl)c(Cl)c1)N1CCCC1 (centres unmarked) [VI-2, N,N-dimethyl-3-(3,4-dichlorophenyl)-3-(pyrrolidin-1-yl)-propylamine]
- IT (sec), immobility time (male ICR mice; 20.0 mg/kg single intragastric administration, 1 h before test, 4 min observation, n=12): 36.19 ± 25.78 s
- Improvement (%) (male ICR mice; 20.0 mg/kg single oral administration, versus blank control IT): 63.52%
- effect on immobility time in the tail suspension test (in words) (male ICR mice; 20 mg/kg, efficacy similar to Venlafaxine): significant reduction in the immobility time
- anti-tremor effect (in words) (DA reuptake; 30 mg/kg oral, oxotremorine 0.5 mg/kg i.p. 1 h later): No anti-tremor effect is observed
- Side overturn (in words) (DA reuptake; 120 mg/kg or lower): rarely observed
- Side overturn (in words) (DA reuptake; 300 mg/kg and 200 mg/kg oral): Side overturn of different extent is observed
- Activity of the mice (in words) (DA reuptake; 300→200→120→60→30 mg/kg = Model): The best activity of the mice is observed in the 300 mg/kg group
- intensity of tremors versus dose (in words) (DA reuptake; Model→30→60→120→200→300 mg/kg from high to low): Clear dose-effect relationship is observed
- antagonism of the tremor symptom (in words) (DA reuptake; by enhancing the function of DA): can partially antagonize the tremor symptom
- doses giving improvement of tremor (in words) (DA reuptake; oral 30-300 mg/kg, oxotremorine 0.5 mg/kg i.p.): An improvement is only observed at doses up to 120 mg/kg
- enhancement of DA function at therapeutic doses (in words) (DA reuptake; therapeutic doses (10-20 mg/kg)): no such enhancement
- LD50 [1]: 950 mg/kg
- inhibition effect towards the reuptake of 5-HT (in words) (5-HT Transporter (hSERT)): relatively strong inhibition effect
- inhibition at 10 µM (5-HT Transporter (hSERT); HEK293, read-out: 5-HT Reuptake Inhibition): 94.8%
